{"source": "patent US20070218189A1", "about": "“Reduction inhibitory agent for active oxygen eliminating-activity” (KABUSHIKI KAISHA HAYASHIBARA SEIBUTSU KAGAKU KENYUJO, priority 2001, published 2007)", "type_in_all_cases": "biochemical", "key": {"[1]": {"tested_on": "superoxide, formed in a xanthine-xanthine oxidase system", "assay": "Active oxygen eliminating activity of powdery vegetable compositions with or without cyclotetrasaccharide before and after storage (Experiment 6)", "details": "carrot, onion, Japanese radish, cabbage, spinach, cucumber, pumpkin; in words"}, "[2]": {"tested_on": "superoxide, formed in a hypoxanthine-xanthine oxidase system", "assay": "Active oxygen eliminating activity of powdery carrot compositions with saccharides before and after storage, electron spin resonance (ESR) test (Experiment 4)", "method": "Fresh raw carrots were disrupted as Experiment 3, and saccharides were respectively added to the mixture and dissolved therein to give a concentration of 10%, d.s.b. The solutions were dried under a reduced pressure at 40° C. for one day, dried in vacuo at the same temperature for 17 hours, and pulverized by a mixer into powdery carrot compositions. […] About 100 g each of the compositions was placed and sealed in a 500-ml polystyrene container, and stored at 40° C. for seven or fourteen days. The active oxygen eliminating activities of the compositions before and after storage were compared with each other. The active oxygen eliminating activity was assayed by the electron spin resonance (ESR) test by Toshihiko OZAWA in BUNSEKI, Vol. 2, pp. 68-74 (2000), and the level of superoxide, formed in a hypoxanthine-xanthine oxidase system, was assayed by the spin-trapping with 5,5-dimethyl-1-pyrroline-N-oxide in ESR."}, "[3]": {"tested_on": "superoxide, formed in a xanthine-xanthine oxidase system", "assay": "Active oxygen eliminating activity of powdery carrot compositions with saccharides before and after storage, nitro blue tetrazolium (NBT) test (Experiment 3)", "method": "(§1) Fresh raw carrots were disrupted by a mixer, and saccharides were respectively added to the mixture and dissolved therein to give a concentration of 10%, d.s.b. The solutions were dried under a reduced pressure at 40° C. for two days, dried in vacuo at the same temperature for 24 hours, and pulverized by a mixer into powdery carrot compositions. […] An about 100 g each of the compositions was placed and sealed in a 500-ml polystyrene container, and stored at 40° C. for seven days. The active oxygen eliminating activities of the compositions before and after storage were compared with each other. The active oxygen eliminating activity was assayed by the nitro blue tetrazolium (NBT) test by Toshio IMANARI et al. in Igakuno Ayumi, Vol. 101, pp. 496-497 (1977), and the level of superoxide, formed in a xanthine-xanthine oxidase system, was assayed by quantifying calorimetrically the content of formazan formed by reducing NBT. As a control, refined water was used as a test solution. One unit activity of active oxygen eliminating activity was defined as that inhibited 50% formazan formation as compared with the control. […] Thus cyclotetrasaccharide is preferable as an effective ingredient for a reduction inhibitory agent for active oxygen eliminating activity."}, "active oxygen": {"tested_on": "active oxygen", "assay": "Active oxygen eliminating activity of superoxide dismutase and antioxidants in cyclotetrasaccharide solution or water before and after storage (Experiment 7)", "details": "30% (w/v) cyclotetrasaccharide solution; superoxide dismutase, α-glucosyl hesperidin, α-glucosyl rutin, gallic acid, catechin; in words", "method": "In one milliliter of 30% (w/v) cyclotetrasaccharide solution, which is prepared by using cyclotetrasaccharide obtained in Experiment 2, was dissolved five micrograms (μ g) of superoxide dismutase from a horseradish commercialized by Sigma Chemical Co., St. Louis, USA, 10 mg of α-glucosyl hesperidin commercialized by Hayashibara Biochemical Laboratories, Inc., Okayama Japan, 10 mg of α-glucosyl rutin commercialized by Hayashibara Biochemical Laboratories, Inc., Okayama, Japan, 250 μg of gallic acid commercialized by Wako Pure Chemical Industries, Ltd., Tokyo, Japan, or 50 μg of catechin to obtain a liquid composition. Each of the compositions was placed in a glass test tube, sealed with a rubber cap, and stored under a dark condition. As a control, water was used in place of the cyclotetrasaccharide solution."}, "[4]": {"tested_on": "superoxide, formed in a xanthine-xanthine oxidase system", "assay": "Influence of cyclotetrasaccharide concentration on active oxygen eliminating activity of powdery carrot compositions, NBT test (Experiment 5)", "details": "for Activity (unit/g) After storage / Percentage of residual activity (%): 40° C. seven days", "method": "as §1\nSimilarly as in Experiment 3, cyclotetrasaccharide was respectively mixed with and dissolved in disrupted carrots to give concentrations of 0-20%, d.s.b. The resulting mixtures were dried in vacuo at 40° C. for 24 hours, and pulverized into powdery carrot compositions. Similarly as in Experiment 3, each powdery composition was placed and sealed in a polystyrene container, and stored at 40° C. for seven days for evaluating the reduction inhibitory activity for active oxygen activity. The active oxygen eliminating activity of one gram each of powdery compositions before and after storage was measured by the method in Experiment 3."}, "[5]": {"details": "powdery carrot composition, saccharide added at 10% d.s.b., stored at 40° C. for seven days"}, "[6]": {"details": "0.1% cyclotetrasaccharide added to carrot (content 1.0% d.s.b.)"}, "[7]": {"details": "0.5% cyclotetrasaccharide added to carrot (content 4.9% d.s.b.)"}, "[8]": {"details": "1.0% cyclotetrasaccharide added to carrot (content 9.4% d.s.b.)"}, "[9]": {"details": "2.5% cyclotetrasaccharide added to carrot (content 20.7% d.s.b.)"}, "[10]": {"details": "5.0% cyclotetrasaccharide added to carrot (content 34.2% d.s.b.)"}, "[11]": {"details": "10.0% cyclotetrasaccharide added to carrot (content 51.1% d.s.b.)"}, "[12]": {"details": "20.0% cyclotetrasaccharide added to carrot (content 67.6% d.s.b.)"}}, "data": [{"smiles": "OCC1OC2OCC3O[C@H](O[C@H]4C(O)C(CO)OC(OCC5O[C@H](O[C@@H](C1O)C2O)C(O)C(O)[C@@H]5O)C4O)C(O)C(O)[C@@H]3O", "note": "(stereo partly drawn) [Cyclotetrasaccharide, cyclo{→6)-α-D-glucopyranosyl-(1→3)-α-D-glucopyranosyl-(1→6)-α-D-glucopyranosyl-(1→3)-α-D-glucopyranosyl-(1→}]", "values": [{"measurement": "reduction inhibitory activity for active oxygen eliminating activity by incorporating cyclotetrasaccharide", "setting": "[1]", "result": "observed in many vegetables"}, {"measurement": "Activity (unit/g) Before storage", "setting": "[2]; powdery carrot composition, saccharide added at 10% d.s.b., before storage", "result": 186, "unit": "unit/g"}, {"measurement": "Activity (unit/g) After two weeks storage", "setting": "[2]; powdery carrot composition, stored at 40° C. for fourteen days", "result": 66, "unit": "unit/g"}, {"measurement": "percentage of residual activity After two weeks storage", "setting": "[2]; powdery carrot composition, stored at 40° C. for fourteen days, numerals in parentheses", "result": 36, "unit": "%"}, {"measurement": "Activity (unit/g) After one week storage", "setting": "[2]; powdery carrot composition, stored at 40° C. for seven days", "result": 88, "unit": "unit/g"}, {"measurement": "percentage of residual activity After one week storage", "setting": "[2]; powdery carrot composition, stored at 40° C. for seven days, numerals in parentheses", "result": 47, "unit": "%"}, {"measurement": "residual percentage for active oxygen eliminating activity among the saccharides tested", "setting": "[2]; powdery carrot compositions, in words", "result": "highest residual percentage"}, {"measurement": "Activity (unit/g) After storage", "setting": "[3]; [5]", "result": 390, "unit": "unit/g"}, {"measurement": "Percentage of residual activity (%)", "setting": "[3]; [5]", "result": 66, "unit": "%"}, {"measurement": "Activity (unit/g) Before storage", "setting": "[3]; powdery carrot composition, saccharide added to disrupted carrots at 10% d.s.b., before storage", "result": 590, "unit": "unit/g"}, {"measurement": "residual percentage / reduction inhibitory activity for active oxygen eliminating activity among the saccharides tested", "setting": "[3]; powdery carrot compositions, 40° C. seven days, in words", "result": "highest residual percentage"}, {"measurement": "reducing inhibitory activity for active oxygen eliminating activity of plant antioxidants", "setting": "active oxygen", "result": "effective reducing inhibitory activity"}, {"measurement": "Activity (unit/g) After storage", "setting": "[4]; [6]", "result": 390, "unit": "unit/g"}, {"measurement": "Percentage of residual activity (%)", "setting": "[4]; [6]", "result": 42, "unit": "%"}, {"measurement": "Activity (unit/g) Before storage", "setting": "[4]; [6]", "result": 930, "unit": "unit/g"}, {"measurement": "Activity (unit/g) After storage", "setting": "[4]; [7]", "result": 470, "unit": "unit/g"}, {"measurement": "Percentage of residual activity (%)", "setting": "[4]; [7]", "result": 57, "unit": "%"}, {"measurement": "Activity (unit/g) Before storage", "setting": "[4]; [7]", "result": 820, "unit": "unit/g"}, {"measurement": "Activity (unit/g) After storage", "setting": "[4]; [8]", "result": 450, "unit": "unit/g"}, {"measurement": "Percentage of residual activity (%)", "setting": "[4]; [8]", "result": 61, "unit": "%"}, {"measurement": "Activity (unit/g) Before storage", "setting": "[4]; [8]", "result": 740, "unit": "unit/g"}, {"measurement": "Activity (unit/g) After storage", "setting": "[4]; [9]", "result": 460, "unit": "unit/g"}, {"measurement": "Percentage of residual activity (%)", "setting": "[4]; [9]", "result": 66, "unit": "%"}, {"measurement": "Activity (unit/g) Before storage", "setting": "[4]; [9]", "result": 700, "unit": "unit/g"}, {"measurement": "Activity (unit/g) After storage", "setting": "[4]; [10]", "result": 340, "unit": "unit/g"}, {"measurement": "Percentage of residual activity (%)", "setting": "[4]; [10]", "result": 62, "unit": "%"}, {"measurement": "Activity (unit/g) Before storage", "setting": "[4]; [10]", "result": 550, "unit": "unit/g"}, {"measurement": "Activity (unit/g) After storage", "setting": "[4]; [11]", "result": 290, "unit": "unit/g"}, {"measurement": "Percentage of residual activity (%)", "setting": "[4]; [11]", "result": 69, "unit": "%"}, {"measurement": "Activity (unit/g) Before storage", "setting": "[4]; [11]", "result": 420, "unit": "unit/g"}, {"measurement": "Activity (unit/g) After storage", "setting": "[4]; [12]", "result": 280, "unit": "unit/g"}, {"measurement": "Percentage of residual activity (%)", "setting": "[4]; [12]", "result": 64, "unit": "%"}, {"measurement": "Activity (unit/g) Before storage", "setting": "[4]; [12]", "result": 390, "unit": "unit/g"}]}]}
